Reference: patent US11666539B2, “Synthetic lipid-like materials for brain delivery” (Trustees of Tufts College, priority 2020, dated 2023)

Tested on: flox-stop-flox tdTomato construct
Assay: (-27)GFP-Cre protein delivery, tdTomato expression in Ai14 mouse brain
Format: in vivo
Conditions: (-27)GFP-Cre/LNP weight ratio 1/4; four i.v. injections of 50 μg protein; brain slices, fluorescence imaging
Text: GFP fused Cre recombinase was chosen as a model protein for the study, using the Ail4 model mouse line (FIG. 4A). The Ail4 mouse line contains a flox-stop-flox tdTomato construct. The successful intracellular delivery of Cre protein into the cells of Ail4 mouse leads to the gene recombination and turns on the tdTomato expression which can be directly visualized as red fluorescence signal without additional staining. Here, (−27)GFP-Cre protein was used. NT1-O14B LNPs doped with PBA-Q76-O16B was chosen, as these nanoparticles could successfully deliver (−27)GFP-Cre. The weight ratio of NT1-O14B and PBA-Q76-O16B was fixed at 3:7, based on the results observed from the AmB and ASO delivery. Lipid formulations were prepared using the approaches described for the formulation for ASO delivery. Briefly, the (−27)GFP-Cre protein was mixed with LNPs at a weight ratio of 1/4 and incubated the solution for 15 min at room temperature before intravenous injection. Mice were injected four times with a dose of 50 μg protein per injection. Five days after the last injection, the mice were sacrificed and brain tissues were collected, fixed, and dehydrated. Then the tissues were cryo-sectioned into […] slices and counter-stained with DAPI for fluorescence imaging.

CCCCCCCCCCCCSSCCOC(=O)CC[N+](CCC(=O)OCCSSCCCCCCCCCCCC)(CCN1CCCC1)Cc1ccc(B(O)O)cc1 [PBA-Q76-O16B]
tdTomato expression in the brain: no tdTomato expression
